Source: US20100069450A1, “SALT OF 3-BENZYL-2-METHYL-2,3,3A,4,5,6,7, 7A- OCTAHYDROBENZO[D]ISOXAZOL-4-ONE” (ABIOGEN PHARMA S.P.A, priority 2006, published 2010)

Columns and labels:
[1] = Stability test of BTG 1640 salts: purity under preservation conditions; type: physicochemical
Description: Samples of 100 mg each of BTG 1640 hydrochloride were subjected to the following preservation conditions:
The purities were then analyzed periodically, initially every three months, in order to underline possible variations.
Samples of 100 mg each of BTG 1640 fumarate prepared according to example 1C were subjected to the following preservation conditions:
Quarterly and in an overall period of nine months its purity was then analyzed in order to underline possible variations. The results in the following Table 3 were obtained:
As comparison other salts of BTG 1640 were prepared, and exactly: • BTG 1640 methanesulphonate • BTG 1640 maleate • BTG 1640 succinate following the procedure indicated in example 1 and substituting methanesolphonic, maleic and succinic acids for fumaric acid.
The stabilities were then evaluated by subjecting samples of 100 mg of each salt to the following analogous preservation conditions:
Quarterly and in an overall period of nine months their purity was then analyzed in order to underline possible variations.
The obtained results, together with those obtained in Example 2 for hydrochloride, in Example 3 for fumarate in order to make easier the comparison, were in Table 5 and represented in FIGS. 5-8.

[2] = Stability test of BTG 1640 salts: evaluation of total impurities; type: physicochemical
Description: Contemporaneously, the impurity analysis in the conditions a)-d) of T/% RH were carried out.
As a confirmation of such evidence, a test for the evaluation of the impurity percentage of the sample subjected to the same conditions a)-d) of T/% RH was parallely carried out. The experimental values in Table 4 were obtained.

[3] = Absorption kinetic: plasma concentration of BTG 1640 after oral gavage; type: in vivo, rats Sprague Dawley; conditions: rats, oral gavage 10 mg/kg (as free base)
Description: Absorption extent and rate of molecule BTG 1640 in its forms of fumarate and hydrochloride salts were evaluated.
With this intent, the two salts were dispersed in an aqueous suspension of arabic gum at 5% thus obtaining two formulations, each one orally administered through oesophageous gavage at dose of 10 mg/kg (expressed as free base of BTG 1640) to five rats Sprague Dawley.
Plasma concentration of molecule BTG 1640 was determined at different time points.

female CD-1 mice = assay: Acute oral toxicity; type: in vivo; conditions: female CD-1 mice, oral gavage 2000 mg/kg bw
Description: Acute oral toxicity of salts hydrochloride and fumarate of BTG-1640 was evaluated.
The two salts were dispersed in an aqueous suspension, thus obtaining two formulations, each one orally administered through oesophageous gavage at dose of 2000 mg/kg bw (expressed as free base of BTG 1640) to one of two groups comprising three female CD-1 mice per group.
The observation lasted 14 days.

[4] = T = 25° C., humidity 60% RH, time 0
[5] = T = 25° C., humidity 60% RH, time 3 (months)
[6] = T = 25° C., humidity 60% RH, time 6 (months)
[7] = T = 25° C., humidity 60% RH, time 9 (months)
[8] = T = 25° C., humidity 60% RH, time 12 (months)
[9] = T = 25° C., humidity 60% RH, time 18 (months)
[10] = T = 25° C., humidity 60% RH, time 24 (months)
[11] = T = 25° C., humidity 60% RH, time 36 (months)
[12] = T = 30° C., humidity 65% RH, time 0
[13] = T = 30° C., humidity 65% RH, time 3 (months)
[14] = T = 30° C., humidity 65% RH, time 6 (months)
[15] = T = 30° C., humidity 65% RH, time 9 (months)
[16] = T = 30° C., humidity 65% RH, time 12 (months)
[17] = T = 40° C., humidity 75% RH, time 0
[18] = T = 40° C., humidity 75% RH, time 3 (months)
[19] = T = 40° C., humidity 75% RH, time 6 (months)

Compound: CN1OC2CCCC(=O)C2C1Cc1ccccc1.Cl (stereo not shown) [BTG 1640 hydrochloride]
- Purity % ([1]; T = 5° C., time 0): 99.3%
- Purity % ([1]; T = 5° C., time 3 (months)): 100.1%
- Purity % ([1]; T = 5° C., time 6 (months)): 100.3%
- Purity % ([1]; T = 5° C., time 9 (months)): 99.6%
- Purity % ([1]; T = 5° C., time 12 (months)): 99.6%
- Purity % ([1]; T = 5° C., time 18 (months)): 100.8%
- Purity % ([1]; T = 5° C., time 24 (months)): 98.8%
- Purity % ([1]; T = 5° C., time 36 (months)): 99.8%
- Purity % [1, 4]: 99.7%
- Purity % [1, 5]: 100.9%
- Purity % [1, 6]: 101.5%
- Purity % [1, 7]: 99.3%
- Purity % [1, 8]: 101.1%
- Purity % [1, 9]: 100.5%
- Purity % [1, 10]: 99.3%
- Purity % [1, 11]: 99.5%
- Purity % [1, 12]: 99.7%
- Purity % [1, 13]: 100.0%
- Purity % [1, 14]: 100.9%
- Purity % [1, 15]: 100.6%
- Purity % [1, 16]: 99.9%
- Purity % [1, 17]: 99.7%
- Purity % [1, 18]: 93.4%
- Purity % [1, 19]: 81.2%
- Stability (in words) ([1]; condition d): 40° C. and 75% RH): strong instability
- Stability (in words) ([1]; conditions a)-c): 5° C., 25° C./60% RH, 30° C./65% RH): good stability
- validity time period ([1]; on the basis of the stability results, preserved at 2-8° C.): 12 months
- Stability (in words) ([1]; temperatures higher than 30° C.): unstable
- % impurities ([2]; T = 5° C., time 0): 0.36%
- % impurities ([2]; T = 5° C., time 3 (months)): 0.58%
- % impurities ([2]; T = 5° C., time 6 (months)): 0.45%
- % impurities ([2]; T = 5° C., time 9 (months)): 0.31%
- % impurities ([2]; T = 5° C., time 12 (months)): 0.31%
- % impurities ([2]; T = 5° C., time 18 (months)): 0.1%
- % impurities ([2]; T = 5° C., time 24 (months)): 0.21%
- % impurities ([2]; T = 5° C., time 36 (months)): 0.18%
- % impurities [2, 4]: 0.36%
- % impurities [2, 5]: 0.43%
- % impurities [2, 6]: 0.87%
- % impurities [2, 7]: 0.24%
- % impurities [2, 8]: 0.34%
- % impurities [2, 9]: 0.13%
- % impurities [2, 10]: 0.28%
- % impurities [2, 11]: 0.30%
- % impurities [2, 12]: 0.36%
- % impurities [2, 13]: 0.44%
- % impurities [2, 14]: 0.52%
- % impurities [2, 15]: 0.12%
- % impurities [2, 16]: 0.76%
- % impurities [2, 17]: 0.36%
- % impurities [2, 18]: 6.99%
- % impurities [2, 19]: 17.31%
- Impurities (in words) ([2]; condition d): 40° C./75% RH): unacceptable percentage of impurities
- BTG 1640 free base concentration in plasma ([3]; 2 minutes): 0.7402 µg/mL
- BTG 1640 free base concentration in plasma ([3]; 5 minutes): 1.4242 µg/mL
- BTG 1640 free base concentration in plasma ([3]; 30 minutes): 0.2354 µg/mL
- BTG 1640 free base concentration in plasma ([3]; 90 minutes): 0.1184 µg/mL
- BTG 1640 free base concentration in plasma ([3]; 300 minutes): 0 µg/mL
- Clinical signs (female CD-1 mice): Lethargy, ataxia, aggressiveness and vocalization
- Histopathological examination of kidneys (female CD-1 mice): small foci of acute tubular necrosis in the cortex, balloon degeneration of the epithelium and dilatation of convoluted tubules
- Lethality (female CD-1 mice; 14 days observation): lethal in two animals out of three
